# In PubChem BioAssay AID1963828 (Molecular Pharmacology Branch, DTP, NCI, 2024):
# Where “and” joins values, the source holds several entries; their conditions need not be identical. Identical values can stand only once.
# Test system: 991263-137-R1-J2-PDC complex spheroid viability
# Assay: Anticancer human tumor 991263-137-R1-J2-PDC patient-derived colon adenocarcinoma cell line growth inhibition [POLQ]
# Settings: for viability, T/C: stronger effect = lower value
# Procedure: Multicellular complex tumor spheroid response to Polymerase (POL) inhibitors (novobiocin, ART-558, RP6685) in combination with a variety of drugs and investigational agents in selected tumor cell lines
# The POL inhibitors (novobiocin, ART-558, and RP6685) were evaluated both individually and in combination with standard of care and investigational anticancer small molecules within a complex spheroid model of solid tumors. . Complex spheroids include a stromal component modeled by human endothelial cells (HUVEC) and fibroblasts modeled by human mesenchymal stem cells (MSCs). The concentration ranges selected for each drug and investigational agent were based upon clinically achievable concentrations if the clinical Cmax of the agent was known.
# Compounds. The drugs and investigational agents: novobiocin (NSC847541), ART-558 (NSC835418), RP-6685 (NSC848927), peposertib (NSC802822), ceralasertib (NSC780249), elimusertib (NSC800525), camonsertib (NSC841442), AZD-1390 (NSC803789), olaparib (NSC753686), talazoparib (NSC767125), rucaparib (NSC756644), sotorasib (NSC818433), MRTX-1133 (NSC836407), SN-38 (NSC673596), topotecan (NSC609699), epotoside (NSC141540), doxorubicin (NSC123127), gemcitabine (NSC613327), 5-fluorouracil (NSC19893), paclitaxel (NSC125973), vemurafenib (NSC761431), MSA-2 (NSC828583), SN-011 (NSC837082), adavosertib (NSC754352), prexasertib (NSC758257), carboplatin (NSC241240) and oxaliplatin (NSC266046), were obtained from the National Cancer Institute (NCI) Developmental Therapeutics Program Chemical Repository (21). The FDA-approved anticancer drug set is available from the Developmental Therapeutics Program at https://dtp.cancer.gov/organization/dscb/obtaining/. […] The stock solutions were prepared in dimethyl sulfoxide (DMSO, Sigma-Aldrich, St. Louis, MO, cat. D2650), except for the platinum compounds which were prepared in saline (Quality Biological, Gaithersburg, MD, cat. 114-055-101), at 800-fold the tested concentration and stored at -70 degrees C prior to their use. All drugs and investigational agents were tested over a range starting from a high concentration at or near the clinical Cmax and decreasing in half-log increments. If the clinical Cmax for an agent had not been determined, the highest concentration tested was 10 microM, except for SN-38, which was tested at a high concentration of 1 microM.
# Cell Culture. All cells were maintained in an incubator at 37 degrees C and 5% CO2 with 95% humidity. The PDC lines were cultured according to standard operating procedures established by the NCI PDMR (https://pdmr.cancer.gov). Table 3 of the manuscript, lists the cell lines along with the number of the three cell types plated to form the mct-spheroids and media for tumor cell growth. After thawing, all PDC lines, except 997537-175-T-J1-PDC and 415267-285-R-J2-PDC, were cultured in Matrigel-coated flasks prepared with a working solution of 1X Ham's F-12 nutrient mix, without supplementation (Thermo Fisher Scientific, cat. 11765054), 100 U/mL penicillin-streptomycin (Thermo Fisher Scientific, cat. 15140122), and 2.5% Matrigel (Corning Inc., Corning, NY, cat. 354248) for the first three passages. The two PDC lines 997537-175-T-J1-PDC and 415267-285-R-J2-PDC were cultured on uncoated flasks. The 857933-349-R-J2-PDC line was cultured in 6C/Colon 1B media containing advanced DMEM/F-12 (Thermo Fisher Scientific, cat. 12634028), 10 mM HEPES (Thermo Fisher Scientific, cat. 15630080), 1X GlutaMAX supplement (Thermo Fisher Scientific, cat. 35050061), 0.1 mg/mL primocin (InvivoGen, San Diego, CA, cat. ant-pm-2), 10% defined fetal bovine serum, heat inactivated (HyClone Laboratories Inc., Logan, UT, cat. SH30070.03HI), 50% L-WRN conditioned media (ATCC, cat. CRL-3276), 1.25 mM N-Acetyl-L-cysteine (Sigma-Aldrich, cat. A9165), 10 mM nicotinamide (Sigma-Aldrich, cat. N0636), 1X B-27 supplement (Thermo Fisher Scientific, cat. 17504044), 1X N-2 supplement (Thermo Fisher Scientific, cat. […]
# [1] = curve of first compound, second compound 0.0316 µM
# [2] = curve of first compound, second compound 0.1 µM
# [3] = curve of first compound, second compound 0.316 µM
# [4] = curve of first compound, second compound 1 µM
# [5] = curve of first compound, second compound 3.16 µM
# [6] = curve of first compound, second compound 10 µM
# [7] = second compound 0.0316 µM, first compound 0.0316 µM
# [8] = second compound 0.0316 µM, first compound 0.1 µM
# [9] = second compound 0.0316 µM, first compound 0.316 µM
# [10] = second compound 0.0316 µM, first compound 1 µM
# [11] = second compound 0.1 µM, first compound 0.0316 µM
# [12] = second compound 0.1 µM, first compound 0.1 µM
# [13] = second compound 0.1 µM, first compound 0.316 µM
# [14] = second compound 0.1 µM, first compound 1 µM
# [15] = second compound 0.316 µM, first compound 0.0316 µM
# [16] = second compound 0.316 µM, first compound 0.1 µM
# [17] = second compound 0.316 µM, first compound 0.316 µM
# [18] = second compound 0.316 µM, first compound 1 µM
# [19] = second compound 1 µM, first compound 0.0316 µM
# [20] = second compound 1 µM, first compound 0.1 µM
# [21] = second compound 1 µM, first compound 0.316 µM
# [22] = second compound 1 µM, first compound 1 µM
# [23] = second compound 3.16 µM, first compound 0.0316 µM
# [24] = second compound 3.16 µM, first compound 0.1 µM
# [25] = second compound 3.16 µM, first compound 0.316 µM
# [26] = second compound 3.16 µM, first compound 1 µM
# [27] = second compound 10 µM, first compound 0.0316 µM
# [28] = second compound 10 µM, first compound 0.1 µM
# [29] = second compound 10 µM, first compound 0.316 µM
# [30] = second compound 10 µM, first compound 1 µM
# 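Further: spheroids exposed to compounds for 7 days before readout.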
# 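Wherever viability, T/C is given: 100% = DMSO vehicle control viability.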
compound,measurement,setting,value
CCc1c2c(nc3ccc(O)cc13)-c1cc3c(c(=O)n1C2)COC(=O)[C@]3(O)CC + Cc1cccc(N(C)C(=O)C2C(O)CCN2c2nc(C)cc(C(F)(F)F)c2C#N)c1,IC50,[1],0.067 µM
same,IC50,[2],0.1 µM
same,IC50,[3],0.175 µM
same,IC50,[4],0.0723 µM
same,IC50,[5],0.105 µM
same,IC50,[6],0.153 µM
same,"viability, T/C","second compound 0.0316 µM, first compound 0.00316 µM",103%
same,"viability, T/C","second compound 0.0316 µM, first compound 0.01 µM",91.3%
same,"viability, T/C",[7],48.6%
same,"viability, T/C",[8],53.7%
same,"viability, T/C",[9],36.3%
same,"viability, T/C",[10],27.8%
same,"viability, T/C","second compound 0.1 µM, first compound 0.00316 µM",96.7%
same,"viability, T/C","second compound 0.1 µM, first compound 0.01 µM",119%
same,"viability, T/C",[11],67.2%
same,"viability, T/C",[12],57.1%
same,"viability, T/C",[13],36.1%
same,"viability, T/C",[14],28.4%
same,"viability, T/C","second compound 0.316 µM, first compound 0.00316 µM",97.6%
same,"viability, T/C","second compound 0.316 µM, first compound 0.01 µM",96%
same,"viability, T/C",[15],73.4%
same,"viability, T/C",[16],60.1%
same,"viability, T/C",[17],41%
same,"viability, T/C",[18],33.6%
same,"viability, T/C","second compound 1 µM, first compound 0.00316 µM",111%
same,"viability, T/C","second compound 1 µM, first compound 0.01 µM",111%
same,"viability, T/C",[19],64.3%
same,"viability, T/C",[20],50.6%
same,"viability, T/C",[21],48.7%
same,"viability, T/C",[22],32.5%
same,"viability, T/C","second compound 3.16 µM, first compound 0.00316 µM",109%
same,"viability, T/C","second compound 3.16 µM, first compound 0.01 µM",92.5%
same,"viability, T/C",[23],70.4%
same,"viability, T/C",[24],53.5%
same,"viability, T/C",[25],33.9%
same,"viability, T/C",[26],36.6%
same,"viability, T/C","second compound 10 µM, first compound 0.00316 µM",108%
same,"viability, T/C","second compound 10 µM, first compound 0.01 µM",81.5%
same,"viability, T/C",[27],67.9%
same,"viability, T/C",[28],53.2%
same,"viability, T/C",[29],46.2%
same,"viability, T/C",[30],24.5%
CNCc1ccc(-c2[nH]c3cc(F)cc4c3c2CCNC4=O)cc1,"viability, T/C",compound 0.0316 µM,98% and 102% and 119%
same,"viability, T/C",compound 0.1 µM,109% and 91.5% and 97.6%
same,"viability, T/C",compound 0.316 µM,97% and 102% and 112%
same,"viability, T/C",compound 1 µM,110% and 101% and 96%
same,"viability, T/C",compound 10 µM,111% and 110% and 104%
same,IC50,curve of compound,> 10 µM
COc1cccc2c1C(=O)c1c(O)c3c(c(O)c1C2=O)CC(O)(C(=O)CO)CC3OC1CC(N)C(O)C(C)O1 (stereo not given) + Nc1ccc(C#CCN(C(=O)Cc2ncc(C(F)(F)F)cc2C(F)(F)F)c2ccc(F)cc2)nn1,IC50,[1],1.27 µM
same,IC50,[2],1.48 µM
same,IC50,[3],1.25 µM
same,IC50,[4],1.04 µM
same,IC50,[5],0.822 µM
same,IC50,[6],0.614 µM
same,"viability, T/C",[7],102%
same,"viability, T/C",[8],92.4%
same,"viability, T/C",[9],92.8%
same,"viability, T/C",[10],51.7%
same,"viability, T/C","second compound 0.0316 µM, first compound 3.16 µM",43.4%
same,"viability, T/C","second compound 0.0316 µM, first compound 10 µM",42.6%
same,"viability, T/C",[11],103%
same,"viability, T/C",[12],97.8%
same,"viability, T/C",[13],91.5%
same,"viability, T/C",[14],53.2%
same,"viability, T/C","second compound 0.1 µM, first compound 3.16 µM",45.1%
same,"viability, T/C","second compound 0.1 µM, first compound 10 µM",40.2%
same,"viability, T/C",[15],94.7%
same,"viability, T/C",[16],98%
same,"viability, T/C",[17],91.9%
same,"viability, T/C",[18],53%
same,"viability, T/C","second compound 0.316 µM, first compound 3.16 µM",38%
same,"viability, T/C","second compound 0.316 µM, first compound 10 µM",35.1%
same,"viability, T/C",[19],88.6%
same,"viability, T/C",[20],109%
same,"viability, T/C",[21],81.8%
same,"viability, T/C",[22],52%
same,"viability, T/C","second compound 1 µM, first compound 3.16 µM",37.4%
same,"viability, T/C","second compound 1 µM, first compound 10 µM",37.4%
same,"viability, T/C",[23],90.6%
same,"viability, T/C",[24],94.3%
same,"viability, T/C",[25],76.9%
same,"viability, T/C",[26],43.8%
same,"viability, T/C","second compound 3.16 µM, first compound 3.16 µM",38.4%
same,"viability, T/C","second compound 3.16 µM, first compound 10 µM",28.8%
same,"viability, T/C",[27],91.6%
same,"viability, T/C",[28],88.4%
same,"viability, T/C",[29],61.2%
same,"viability, T/C",[30],39.3%
same,"viability, T/C","second compound 10 µM, first compound 3.16 µM",28.8%
same,"viability, T/C","second compound 10 µM, first compound 10 µM",16.4%
